According to US10544112B2, “Identification of ebsulfur analogues with broad-spectrum antifungal activity” (priority 2017, dated 2020):
In brackets after ≈: the same amount, converted by molar mass.

How the values were obtained:
[1] = test system: C. albicans ATCC MYA-2876(S) (strain C); assay: Antifungal MIC determination (CLSI M27-A3, 96-well); assay type: cell-based, Candida albicans; conditions: strain C; compounds 1-4n and AmB; 48 h, RPMI 1640
Description: (§1) Fungal MIC determination experiments were performed using untreated 96-well plates (Corning). Cells were counted either by using a hemocytometer (Hausser Scientific, Horsham, Pa., USA) or by measuring optical density at attenuance of 600 nm (OD600) by using a Genesys 20 spectrophotometer (Thermo Scientific, Waltham, Mass., USA). Spectrophotometric and colorimetric measurements in 96-well plates were performed using a SpectraMax M5 spectrometer (Molecular Devices, Sunnyvale, Calif., USA).
(§2) Yeast strains Candida albicans ATCC 10231 (strain A), C. albicans ATCC 64124 (strain B), and C. albicans ATCC MYA-2876(S) (strain C) were kindly provided by Dr. Jon Y. Takemoto (Utah State University, Logan, UT, USA). C. albicans ATCC MYA-90819(R) (strain D), C. albicans ATCC MYA-2310(S) (strain E), C. albicans ATCC 1237(R) (strain F), C. albicans ATCC MYA-1003(R) (strain G), Candida glabrata ATCC 2001 (strain H), Candida krusei ATCC 6258 (strain I), and Candida parapsilosis ATCC 22019 (strain J) were obtained from the American Type Culture Collection (ATCC, Manassas, Va., USA). The (S) and (R) indicate that ATCC reports these strains to be susceptible (S) and resistant (R) to ITC and FLC. The filamentous fungal strains Aspergillus flavus ATCC MYA-3631 (strain K), and Aspergillus terreus ATCC MYA-3633 (strain M) were also obtained from the American Type Culture Collection (ATCC, Manassas, Va., USA). Aspergillus nidulans ATCC 38163 (strain L) was kindly provided by Dr. Jon S. Thorson (University of Kentucky, Lexington, Ky., USA), respectively. Yeast strains were cultured at 35° C. Filamentous fungal strains were cultured at 25° C. and the spores were harvested. All fungal strains were cultured in RPMI 1640 medium (catalog # R6504, Sigma-Aldrich Chemical Co., St. Louis, Mo.) buffered to pH 7.0 with 0.165 M morpholinepropanesulfonic acid (MOPS) buffer (Sigma-Aldrich Chemical Co.).
(§3) The MIC values against fungal strains were determined based on a previously published protocol. MIC values for ebsulfur (2a) analogues against fungal cells were evaluated in 96-well plates as described in the CLSI document M27-A3 with minor modifications. […] Therefore, potato dextrose broth (PDB) was used to grow the yeast inocula of all strains tested, which were later diluted in RPMI 1640 medium to perform determination of MIC values. […] The tested compounds (10 mg/mL) were diluted to the working stocks (500 μg/mL) by addition of DMSO. Two-fold serial dilution of the working stocks was prepared by addition of RPMI 1640 medium (100 μL) and cell suspension (100 μL) to 96-well microtiter plate to achieve final drug and inoculum concentrations ranging from 12.5-0.02 μg/mL and 5×10^3 CFU/mL, respectively. Plates were incubated for 48 h at 35° C. […]

[2] = test system: C. albicans ATCC MYA-2310(S) (strain E); assay: as above; assay type: cell-based, Candida albicans; conditions: strain E; compounds 1-4n and AmB; 48 h, RPMI 1640
Description: as §1, §2, §3

Candida strains (A-J) = assay: Antifungal MIC, summary over panel of Candida strains; assay type: cell-based; conditions: Candida strains A-J
Description: as §1, §2, §3

[3] = test system: Candida krusei ATCC 6258 (strain I); assay: Antifungal MIC determination (CLSI M27-A3, 96-well); assay type: cell-based; conditions: strain I; compounds 1-4n and AmB; 48 h, RPMI 1640
Description: as §1, §2, §3

[4] = test system: Candida albicans ATCC 10231 (strain A); assay: as above; assay type: cell-based; conditions: strain A; compounds 1-4n and AmB; 48 h, RPMI 1640
Description: as §1, §2, §3

[5] = test system: Candida glabrata ATCC 2001 (strain H); assay: as above; assay type: cell-based; conditions: strain H; compounds 1-4n and AmB; 48 h, RPMI 1640
Description: as §1, §2, §3

[6] = test system: Candida parapsilosis ATCC 22019 (strain J); assay: as above; assay type: cell-based; conditions: strain J; compounds 1-4n and AmB; 48 h, RPMI 1640
Description: as §1, §2, §3

[7] = test system: C. albicans ATCC 64124 (strain B); assay: microbe, parasite or virus in culture; assay type: cell-based, Candida albicans; conditions: strain B; compounds 1-4n and AmB; 48 h, RPMI 1640
Description: as §1, §2, §3

[8] = test system: C. albicans ATCC MYA-1003(R) (strain G); assay: microbe, parasite or virus in culture; assay type: cell-based, Candida albicans; conditions: strain G; compounds 1-4n and AmB; 48 h, RPMI 1640
Description: as §1, §2, §3

[9] = test system: C. albicans ATCC 90819(R) (strain D); assay: microbe, parasite or virus in culture; assay type: cell-based, Candida albicans; conditions: strain D; compounds 1-4n and AmB; 48 h, RPMI 1640
Description: as §1, §2, §3

[10] = test system: C. albicans ATCC MYA-1237(R) (strain F); assay: microbe, parasite or virus in culture; assay type: cell-based, Candida albicans; conditions: strain F; compounds 1-4n and AmB; 48 h, RPMI 1640
Description: as §1, §2, §3

[11] = test system: Aspergillus terreus ATCC MYA-3633 (strain M); assay: Antifungal MIC determination, filamentous fungi spores; assay type: cell-based; conditions: strain M; all compounds; spores
Description: as §1, §2
(§4) The MIC values against fungal strains were determined based on a previously published protocol. MIC values for ebsulfur (2a) analogues against fungal cells were evaluated in 96-well plates as described in the CLSI document M27-A3 with minor modifications. […] Therefore, potato dextrose broth (PDB) was used to grow the yeast inocula of all strains tested, which were later diluted in RPMI 1640 medium to perform determination of MIC values. […] The tested compounds (10 mg/mL) were diluted to the working stocks (500 μg/mL) by addition of DMSO. Two-fold serial dilution of the working stocks was prepared by addition of RPMI 1640 medium (100 μL) and cell suspension (100 μL) to 96-well microtiter plate to achieve final drug and inoculum concentrations ranging from 12.5-0.02 μg/mL and 5×10^3 CFU/mL, respectively. Plates were incubated for 48 h at 35° C.
(§5) MIC assays for the spore-forming filamentous fungi, such as strain A. flavus ATCC MYA-3631 (strain K), were performed in a similar fashion. The filamentous fungal strains were first cultured at 25° C. on potato dextrose agar (PDA) plates for 3-5 days or until confluent. Spores were collected by washing the surface of the agar plates with dd H2O (5 mL) and then isolated the spores by gravity filtration (the spores are H2O soluble). […] Researchers working with spores should wear a facemask to prevent spore inhalation.

[12] = test system: Aspergillus nidulans ATCC 38163 (strain L); assay: as above; assay type: cell-based; conditions: strain L; spores
Description: as §1, §2, §4, §5

[13] = test system: Aspergillus flavus ATCC MYA-3631 (strain K); assay: as above; assay type: cell-based; conditions: all compounds
Description: as §1, §2, §4, §5

[14] = test system: Candida and Aspergillus strains; assay: Antifungal MIC, summary over whole panel of fungal strains; assay type: cell-based; conditions: oxidized analogues
Description: as §1, §2, §3

| Structure (SMILES) | MIC-0 [1] [µg/mL] | MIC-0 [2] [µg/mL] | MIC values against Candida strains, range (Candida strains (A-J)) [µg/mL] | MIC-0 [3] [µg/mL] | MIC-0 [4] [µg/mL] | MIC-0 [5] [µg/mL] | MIC-0 [6] [µg/mL] | MIC-0 [7] [µg/mL] | MIC-0 [8] [µg/mL] | MIC-0 [9] [µg/mL] | MIC-0 [10] [µg/mL] | MIC-0 [11] [µg/mL] | MIC-0 [12] [µg/mL] | MIC-0 [13] [µg/mL] | antifungal activity after oxidizing the sulfur atom to sulfoxide [14] |
| --- | --- | --- | --- | --- | --- | --- | --- | --- | --- | --- | --- | --- | --- | --- | --- |
| O=c1c2ccccc2sn1C1CCCC1 [Compound 3k] | 0.78 (≈ 3.56 µM) | 0.39 (≈ 1.78 µM) | 0.39 to 1.56 | 0.39 (≈ 1.78 µM) | 0.39 (≈ 1.78 µM) | 0.78 (≈ 3.56 µM) | 1.56 (≈ 7.11 µM) | 1.56 (≈ 7.11 µM) | 0.78 (≈ 3.56 µM) | 0.39 (≈ 1.78 µM) | 0.39 (≈ 1.78 µM) | 0.10 (≈ 0.456 µM) | 0.10 (≈ 0.456 µM) | 0.20 (≈ 0.912 µM) |  |
| O=c1c2ccccc2sn1C1CCCCC1 [Compound 3l] | 3.13 (≈ 13.4 µM) | 1.56 (≈ 6.69 µM) | 0.78 to 3.13 | 0.78 (≈ 3.34 µM) | 0.78 (≈ 3.34 µM) | 1.56 (≈ 6.69 µM) | 1.56 (≈ 6.69 µM) | 1.56 (≈ 6.69 µM) | 1.56 (≈ 6.69 µM) | 0.78 (≈ 3.34 µM) | 0.78 (≈ 3.34 µM) | 0.20 (≈ 0.857 µM) | 0.20 (≈ 0.857 µM) | 0.20 (≈ 0.857 µM) |  |
| CC(C)Cn1c(=O)c2ccccc2[s+]1[O-] (stereo not shown) [Compound 4e] | >12.5 | >12.5 |  | >12.5 | >12.5 | >12.5 | >12.5 | >12.5 | >12.5 | >12.5 | >12.5 | >12.5 | >12.5 | >12.5 | completely abolished |
| CC(C)CCn1c(=O)c2ccccc2[s+]1[O-] (stereo not shown) [Compound 4f] | >12.5 | >12.5 |  | >12.5 | >12.5 | >12.5 | >12.5 | >12.5 | >12.5 | >12.5 | >12.5 | >12.5 | >12.5 | >12.5 | completely abolished |
| O=c1c2ccccc2[s+]([O-])n1C1CCCCCCC1 (stereo not shown) [Compound 4n] | >12.5 | >12.5 |  | >12.5 | >12.5 | >12.5 | >12.5 | >12.5 | >12.5 | >12.5 | >12.5 | >12.5 | >12.5 | >12.5 | completely abolished |
